In patent US20200369629A1, “BENZAMIDE COMPOUNDS AND THEIR USE AS HERBICIDES” (BASF SE, priority 2017, published 2020):

Assays:
Assay type in all cases: in vivo
Conditions in all cases: application rate 62.5 g/ha, scale 0 to 100 (100 = complete destruction, 0 = no damage)
[1] = system: AMARE (Amaranthus retroflexus); assay: Greenhouse post-emergence test, test series 1, AMARE
Description: (§1) The seeds of the test plants were sown separately for each species. For the pre-emergence treatment, the active ingredients, which had been suspended or emulsified in water, were applied directly after sowing by means of finely distributing nozzles. The containers were irrigated gently to promote germination and growth and subsequently covered with transparent plastic hoods until the plants had rooted. This cover caused uniform germination of the test plants, unless this had been impaired by the active ingredients. For the post-emergence treatment, the test plants were first grown to a height of 3 to 15 cm, depending on the plant habit, and only then treated with the active ingredients which had been suspended or emulsified in water. For this purpose, the test plants were either sown directly and grown in the same containers, or they were first grown separately as seedlings and transplanted into the test containers a few days prior to treatment. Depending on the species, the plants were kept at 10-25° C. or 20-25° C., respectively. The test period extended over 2 to 4 weeks. During this time, the plants were tended, and their response to the individual treatments was evaluated. Evaluation was carried out using a scale from 0 to 100. 100 means no emergence of the plants, or complete destruction of at least the aerial moieties, and 0 means no damage, or normal course of growth. A good herbicidal activity is given at values of at least 70 and a very good herbicidal activity is given at values of at least 85. Test Series 1: At an application rate of 62.5 g/ha the following compounds were tested in post-emergence tests against: AMARE (Amaranthus retroflexus)

AVEFA (Avena fatua) = assay: Greenhouse post-emergence test, test series 1, AVEFA
Description: as §1, with “AVEFA (Avena fatua)” for “AMARE (Amaranthus retroflexus)”

[2] = system: ALOMY (Alopecurus myosuroiedes); assay: Greenhouse post-emergence test, test series 1, ALOMY
Description: as §1, with “ALOMY (Alopecurus myosuroiedes)” for “AMARE (Amaranthus retroflexus)”

Row | SMILES | pest or weed control at 62.5 g/ha [1] [%] | pest or weed control at 62.5 g/ha (AVEFA (Avena fatua)) [%] | pest or weed control at 62.5 g/ha [2] [%]
1 | CC(C)N(CC(F)(F)F)C(=O)Nc1c(C(F)(F)F)cc(F)c(C(=O)Nc2nnnn2C)c1Cl [Example 14] | > 85 | > 85 | > 85
2 | Cc1c(NC(=O)N(C)CC(F)(F)F)c(Br)cc(F)c1C(=O)Nc1nnnn1C [Example 1, 4-bromo-6-fluoro-2-methyl-N-(1-methyltetrazol-5-yl)-3-[[methyl(2,2,2-trifluoroethyl)carbamoyl]amino]benzamide] | > 85 | > 85 | > 85
3 | Cc1c(NC(=O)N(C)CC(F)(F)F)c(Cl)cc(F)c1C(=O)Nc1nnnn1C [Example 12] | > 85 | > 85 | > 85
4 | CCN(CC(F)(F)F)C(=O)Nc1c(Cl)cc(F)c(C(=O)Nc2nnnn2C)c1Cl [Example 8] | > 85 | > 85 | 
5 | Cn1nnnc1NC(=O)c1c(F)cc(Cl)c(NC(=O)N(CC(F)(F)F)C2CC2)c1Cl [Example 7] | > 85 | > 85 | > 85
6 | CN(CC(F)(F)F)C(=O)Nc1c(C(F)(F)F)cc(F)c(C(=O)Nc2nnnn2C)c1Cl [Example 10] | > 85 | > 85 | > 85
7 | Cc1c(NC(=O)N(CC(F)(F)F)CC(F)(F)F)c(Br)cc(F)c1C(=O)Nc1nnnn1C [Example 3] | > 85 | > 85 | > 85
8 | CN(CC(F)(F)F)C(=O)Nc1c(Cl)cc(F)c(C(=O)Nc2nnnn2C)c1Cl [Example 9, 2,4-dichloro-6-fluoro-N-(1-methyltetrazol-5-yl)-3-[[methyl(2,2,2-trifluoroethyl)carbamoyl]amino]benzamide] | > 85 | > 85 | > 85
9 | Cc1c(NC(=O)N(CC(F)(F)F)C2CC2)c(Br)cc(F)c1C(=O)Nc1nnnn1C [Example 6] | > 85 | > 85 | > 85
10 | Cn1nnnc1NC(=O)c1c(F)cc(C(F)(F)F)c(NC(=O)N(CC(F)(F)F)CC(F)(F)F)c1Cl [Example 22] | > 85 | > 85 | > 85
11 | Cc1c(NC(=O)N(CC(F)(F)F)CC(F)(F)F)c(Cl)cc(F)c1C(=O)Nc1nnnn1C [Example 19] | > 85 | > 85 | > 85
12 | Cc1c(NC(=O)N(CC(F)(F)F)C(C)C)c(Cl)cc(F)c1C(=O)Nc1nnnn1C [Example 13] | > 85 | > 85 | 
13 | Cc1c(NC(=O)N(CC(F)(F)F)C2CC2)c(Cl)cc(F)c1C(=O)Nc1nnnn1C [Example 21] | > 85 | > 85 | > 85
14 | CC(C)N(CC(F)(F)F)C(=O)Nc1c(Cl)cc(F)c(C(=O)Nc2nnnn2C)c1Cl [Example 20] | > 85 | > 85 | > 85
15 | CCN(CC(F)(F)F)C(=O)Nc1c(Br)cc(F)c(C(=O)Nc2nnnn2C)c1C [Example 2, 4-bromo-6-fluoro-2-methyl-N-(1-methyltetrazol-5-yl)-3-[[ethyl(2,2,2-trifluoroethyl)carbamoyl]amino]benzamide] | > 85 | > 85 | > 85
16 | CCN(CC(F)(F)F)C(=O)Nc1c(Cl)cc(F)c(C(=O)Nc2nnnn2C)c1C [Example 18] | > 85 | > 85 | > 85
